Measurements: PubChem BioAssay AID2060620 (Molecular Pharmacology Branch, DTP, NCI, 2025)
Values belong to the compound of their own block, whether it stands above or below them.

Tested on: 328373-195-R-J1-PDC complex spheroids, viability % test/control
Assay: Anticancer human tumor 328373-195-R-J1-PDC patient-derived head and neck squamous carcinoma cell line growth inhibition [CLK]
Settings: for IC50: curve of first compound; for viability, T/C: stronger effect = lower value
Excerpt: A high-throughput screen of multi-cell type tumor spheroids was designed to identify active combinations of […] and targeted small molecules. Complex spheroids include a stromal component modeled by human endothelial cells (HUVEC) and fibroblasts modeled by human mesenchymal stem cells (MSCs). The concentration ranges selected for each drug and investigational agent were based upon clinically achievable concentrations if the clinical Cmax of the agent was known.
Compounds. The drugs and investigational agents: cirtuvivint (SM08502; NSC835563), CC-671 (NSC850746), vemurafenib (NSC761431), tapotoclax (NSC804041), sotorasib (NSC818433), adagrasib (NSC831453), MRTX-1133 (NSC836407), BAY2416964 (NSC825713), copanlisib (NSC816437), inavolisib (NSC800729), abemaciclib (NSC768073), osimertinib (NSC779217), entinostat (NSC756642), eltanexor (KPT-8602, NSC794443), venetoclax (NSC766270), ceralasertib (NSC777638), bortezomib (NSC756655), olaparib (NSC753686), talazoparib (NSC767125), alisertib (NSC759677), peposertib (NSC802822), gemcitabine (NSC613327), 5-fluorouracil (NSC19893), SN-38 (NSC673596), oxaliplatin (NSC266046), paclitaxel (NSC125973), and doxorubicin (NSC123127), were obtained from the National Cancer Institute (NCI) Developmental Therapeutics Program Chemical Repository. The FDA-approved anticancer drug set is available from the Developmental Therapeutics Program at https://dtp.cancer.gov/organization/dscb/obtaining/available plates.htm. […] The stock solutions were prepared in dimethyl sulfoxide (DMSO, Sigma-Aldrich, St. Louis, MO, cat. D2650), except for the platinum complexes which were prepared in saline (Quality Biological, Gaithersburg, MD, cat. 114-055-101), at 800-fold the tested concentration and stored at -70 degrees C prior to their use. All drugs and investigational agents were tested over a range starting from a high concentration at or near the clinical Cmax and decreasing in half-log increments. If the clinical Cmax for an agent had not been determined, the highest concentration tested was 10 microM.
Cell Culture. All cells were maintained in an incubator at 37 degrees C and 5% CO2 with 95% humidity. The PDC lines were cultured according to standard operating procedures established by the NCI PDMR. Briefly, all PDCs were thawed and cultured in Matrigel-coated flasks prepared with a working solution of 1X Ham's F-12 nutrient mix, without supplementation (Invitrogen, Waltham, MA, cat. 11765054), 100 U/mL penicillin-streptomycin (Invitrogen, cat. 15140122), and 2.5% Matrigel (Corning Inc., Corning, NY, cat. 354248) for the first three passages. The 947758-054-R-J2-PDC line was cultured in 6B/Colon 1A media, which includes advanced DMEM/F-12 (Thermo Fisher Scientific, cat. 12634028), 10 mM HEPES (Thermo Fisher Scientific, cat. 15630080), 1X GlutaMAX supplement (Thermo Fisher Scientific, cat. 35050061), 0.1 mg/mL primocin (InvivoGen, cat. ant-pm-2), 10% defined fetal bovine serum, heat inactivated (HyClone Laboratories Inc., cat. SH30070.03HI), 1.25 mM N-Acetyl-L-cysteine (Sigma-Aldrich, cat. A9165), 10 mM nicotinamide (Sigma-Aldrich, cat. N0636), 1X B-27 supplement (Thermo Fisher Scientific, cat. 17504044), 1X N-2 supplement (Thermo Fisher Scientific, cat. 17502048), and 10 microM Y-27632 dihydrochloride (Tocris Bioscience, cat. 1254). The 876862-298-R-J1-PDC was cultured in 6E media, which includes all 6B/Colon 1A media components plus 50% L-WRN conditioned media (ATCC, cat. CRL-3276), 50 ng/mL recombinant human EGF recombinant protein (hEGF; Thermo Fisher Scientific, cat. PHG0311), 10 ng/mL recombinant human fibroblast growth factor 10 (hGFG-10; PeproTech, cat. 100-26), 1 ng/mL recombinant human fibroblast growth factor 2 (hFGF-2; PeproTech, cat. 100-18B), and 1 µM prostaglandin E2 (PGE2; Tocris, cat. 2296). The 227483-062-R1-J1-PDC line was cultured in Panc media, containing all 6E components except hFGF-2, with the addition of 500 nM SB-431542 (Selleckchem, cat. S1067) and 10 nM gastrin (Tocris, cat. 3006). […]
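Further: spheroids exposed to the agents for 7 days.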

SMILES: CC(C)CC(NC(=O)C(Cc1ccccc1)NC(=O)c1cnccn1)B(O)O (centres undefined) + CN1CCN(c2cc(C(=O)Nc3cc4cc(-c5cnn(C)c5)ccc4cn3)ccn2)CC1
- IC50 (second compound 0.0316 µM): 1.76 nM
- IC50 (second compound 0.1 µM): 1.5 nM
- IC50 (second compound 0.316 µM): < 0.949 nM
- IC50 (second compound 1 µM): < 0.949 nM
- IC50 (second compound 3.16 µM): < 0.949 nM
- IC50 (second compound 10 µM): < 0.949 nM
- viability, T/C (second compound 0.0316 µM, first compound 0.000949 µM): 98.5%
- viability, T/C (second compound 0.0316 µM, first compound 0.003 µM): 8.37%
- viability, T/C (second compound 0.0316 µM, first compound 0.00949 µM): 1.89%
- viability, T/C (second compound 0.0316 µM, first compound 0.03 µM): 0.2%
- viability, T/C (second compound 0.0316 µM, first compound 0.0949 µM): 0.17%
- viability, T/C (second compound 0.0316 µM, first compound 0.3 µM): 2.7%
- viability, T/C (second compound 0.1 µM, first compound 0.000949 µM): 78.4%
- viability, T/C (second compound 0.1 µM, first compound 0.003 µM): 6.61%
- viability, T/C (second compound 0.1 µM, first compound 0.00949 µM): 2.17%
- viability, T/C (second compound 0.1 µM, first compound 0.03 µM): 0.2%
- viability, T/C (second compound 0.1 µM, first compound 0.0949 µM): 1.87%
- viability, T/C (second compound 0.1 µM, first compound 0.3 µM): 2.34%
- viability, T/C (second compound 0.316 µM, first compound 0.000949 µM): 26.6%
- viability, T/C (second compound 0.316 µM, first compound 0.003 µM): 1.25%
- viability, T/C (second compound 0.316 µM, first compound 0.00949 µM): 0.78%
- viability, T/C (second compound 0.316 µM, first compound 0.03 µM): 0.49%
- viability, T/C (second compound 0.316 µM, first compound 0.0949 µM): 1.14%
- viability, T/C (second compound 0.316 µM, first compound 0.3 µM): 4.1%
- viability, T/C (second compound 1 µM, first compound 0.000949 µM): 0.13%
- viability, T/C (second compound 1 µM, first compound 0.003 µM): 3.65%
- viability, T/C (second compound 1 µM, first compound 0.00949 µM): 0.97%
- viability, T/C (second compound 1 µM, first compound 0.03 µM): 0.1%
- viability, T/C (second compound 1 µM, first compound 0.0949 µM): 0.09%
- viability, T/C (second compound 1 µM, first compound 0.3 µM): 2.54%
- viability, T/C (second compound 3.16 µM, first compound 0.000949 µM): 0.08%
- viability, T/C (second compound 3.16 µM, first compound 0.003 µM): 4.42%
- viability, T/C (second compound 3.16 µM, first compound 0.00949 µM): 1.48%
- viability, T/C (second compound 3.16 µM, first compound 0.03 µM): 0.07%
- viability, T/C (second compound 3.16 µM, first compound 0.0949 µM): 1.48%
- viability, T/C (second compound 3.16 µM, first compound 0.3 µM): 1.92%
- viability, T/C (second compound 10 µM, first compound 0.000949 µM): 2.18%
- viability, T/C (second compound 10 µM, first compound 0.003 µM): 1.53%
- viability, T/C (second compound 10 µM, first compound 0.00949 µM): 3.09%
- viability, T/C (second compound 10 µM, first compound 0.03 µM): 0.11%
- viability, T/C (second compound 10 µM, first compound 0.0949 µM): 1.22%
- viability, T/C (second compound 10 µM, first compound 0.3 µM): 2.07%

- IC50 (second compound 0.0316 µM): > 10000 nM
- IC50 (second compound 0.1 µM): < 31.6 nM
- IC50 (second compound 0.316 µM): < 31.6 nM
- IC50 (second compound 1 µM): < 31.6 nM
- IC50 (second compound 3.16 µM): < 31.6 nM
- IC50 (second compound 10 µM): < 31.6 nM
SMILES: CC(CO)NC(=O)c1cc(-c2ccc(Cl)cc2)nn(-c2cnn(C)c2)c1=O (centres undefined) + CNC(=O)c1ccc(Nc2nc(OC3CCCC3)c3c(-c4ccc5nc(C)oc5c4)c[nH]c3n2)c(OC)c1
- viability, T/C (second compound 0.0316 µM, first compound 0.0316 µM): 76.2%
- viability, T/C (second compound 0.0316 µM, first compound 0.1 µM): 80.8%
- viability, T/C (second compound 0.0316 µM, first compound 0.316 µM): 73%
- viability, T/C (second compound 0.0316 µM, first compound 1 µM): 90.8%
- viability, T/C (second compound 0.0316 µM, first compound 3.16 µM): 73.6%
- viability, T/C (second compound 0.0316 µM, first compound 10 µM): 62.9%
- viability, T/C (second compound 0.1 µM, first compound 0.0316 µM): 16.1%
- viability, T/C (second compound 0.1 µM, first compound 0.1 µM): 12.2%
- viability, T/C (second compound 0.1 µM, first compound 0.316 µM): 11.9%
- viability, T/C (second compound 0.1 µM, first compound 1 µM): 14.1%
- viability, T/C (second compound 0.1 µM, first compound 3.16 µM): 16.1%
- viability, T/C (second compound 0.1 µM, first compound 10 µM): 12.8%
- viability, T/C (second compound 0.316 µM, first compound 0.0316 µM): 10.9%
- viability, T/C (second compound 0.316 µM, first compound 0.1 µM): 10.5%
- viability, T/C (second compound 0.316 µM, first compound 0.316 µM): 11.2%
- viability, T/C (second compound 0.316 µM, first compound 1 µM): 11.8%
- viability, T/C (second compound 0.316 µM, first compound 3.16 µM): 11.4%
- viability, T/C (second compound 0.316 µM, first compound 10 µM): 12%
- viability, T/C (second compound 1 µM, first compound 0.0316 µM): 8.66%
- viability, T/C (second compound 1 µM, first compound 0.1 µM): 9.73%
- viability, T/C (second compound 1 µM, first compound 0.316 µM): 9.96%
- viability, T/C (second compound 1 µM, first compound 1 µM): 10.2%
- viability, T/C (second compound 1 µM, first compound 3.16 µM): 9.14%
- viability, T/C (second compound 1 µM, first compound 10 µM): 8.61%
- viability, T/C (second compound 3.16 µM, first compound 0.0316 µM): 13.6%
- viability, T/C (second compound 3.16 µM, first compound 0.1 µM): 10.9%
- viability, T/C (second compound 3.16 µM, first compound 0.316 µM): 8.97%
- viability, T/C (second compound 3.16 µM, first compound 1 µM): 10.1%
- viability, T/C (second compound 3.16 µM, first compound 3.16 µM): 12.7%
- viability, T/C (second compound 3.16 µM, first compound 10 µM): 10.7%
- viability, T/C (second compound 10 µM, first compound 0.0316 µM): 12.9%
- viability, T/C (second compound 10 µM, first compound 0.1 µM): 9.53%
- viability, T/C (second compound 10 µM, first compound 0.316 µM): 11.4%
- viability, T/C (second compound 10 µM, first compound 1 µM): 12.1%
- viability, T/C (second compound 10 µM, first compound 3.16 µM): 13.2%
- viability, T/C (second compound 10 µM, first compound 10 µM): 11.7%
